Test results published in patent US5677285A, “Derivatives of neuraminic acid” (Fidia S.P.A., priority 1992, dated 1997).
Read-outs that look alike come from different tables or passages of the source.

Experiments:
[1] = test system: glutamate-activated cationic channels (cerebellar granule neurons); experiment: Single channel current registration of glutamate-activated cationic channels; assay type: cell-based, rats
Protocol: Primary cell cultures of cerebellar granule cells were prepared from 8 day old rats (Zivic Miller, Pittsburgh, Pa, USA).
Neurons were grown on 35 mm plates for 7-8 days and maintained in a humid environment (95% air and 5% CO2). Cultures (2.5×10^6 cells/plate) were mainly formed by granule cells (95%), with a small amount (5%) of glial cells (Gallo V. et al.: Selective release of glutamate from cerebellar granule cells differentiating in culture. Proc. Natl. Acad. Sci. USA 79, 7919-23, 1982). Glial proliferation was prevented by arabinofuranoside cytosine.
Derivative ND37 was solubilized at a concentration of 1×10^-2 M in dimethylsulfoxide (1% DMSO), and then diluted at various concentrations in Locke's solution (-Mg^++) (154 mM NaCl/5.6 mM KCl/3.6 mM NaHCO3 /2.3 mM CaCl2 /5.6 mM glucose/5 mM HEPES, pH 7.4). ND37 was analyzed at concentrations of 20 and 30 μM.
Experiments were performed at room temperature utilizing the following medium 145 mM NaCl, 1 mM CaCl2, 5 mM glucose, and 5 mM HEPES/NaOH at pH 7.4, and patch pipettes, close to the preparation, containing 145 mM CsCl2, 1 mM CaCl2, 11 mM ethyleneglycol (β-aminoethyl ether) bis N,N'-tetraacetic acid, 10 mM HEPES/Cs(OH)2 at pH 7.2. Plates were continually perfused at a flow rate of 1 ml/min.
b) The activation by glutamate of single channels was externally recorded on membrane portions prepared from cerebellar granule cells pretreated with ND37 for 30 minutes at 37° C. Micropipettes, filled (1 μM) with glutamate, were positioned close to the membrane portions and were also utilized in order to drip the neurotransmitter. Single channel currents were registered according to the method described by Bertolini and Vicini ("Voltage-dependent block by strychnine of N-methyl-D-aspartic acid-activated cationic channels in rat cortical neurons in culture", Mol. Pharmacol. 34, 98-103, 1988).

cerebellar granule cells [2] = experiment: Protective effect on exogenous glutamate-induced neurotoxicity during cotreatment, FDA/PI test; assay type: cell-based, rats; settings: Rattus norvegicus, 24 h, glutamate 50 μM cotreatment, read-out: % surviving cells N = 4 (average + s.e.) FDA/PI test
Protocol: Primary cerebellar granule cells were prepared from 8 day old rats (Zivic Miller, Pittsburgh, Pa, USA). […] Glial proliferation was prevented by arabinofuranoside cytosine.
The following concentrations were tested: 5×10^-6 M, 1×10^-5 M, and 2×10^5 M.
The cell culture medium was aspirated from the plates (and correctly maintained). Plates were washed (3×2 ml) with Locke's solution without Mg^++, and solutions (1.5 ml) containing the compound to be tested (concentrations from 5×10^6 M to 2×10^5 M) were added and incubated for 2 hours in an incubator at 37° C. (5% CO2).
Treated cells were washed (3×2 ml) with Locke's solution+10% fetal calf serum, then washed (3×2 ml) with Locke's solution without Mg^++. 1.5 ml of Locke's solution (-Mg^++) or 50 μM of glutamate±the test compound (concentrations between 1 and 4×10^-5 M) in 1.5 ml of Locke's solution (-M^++) were added. The incubation was conducted for 15 minutes (37° C.). Glutamate and the compound were removed. The plates were washed with Locke's solution (2×2 ml), and then incubated in the presence of the starting medium (correctly maintained) for 24 hours at 37° C. in an incubator (5% CO2). […] The stained cells where immediately analyzed using a standard fluorescence microscope for epiillumination (Vanox Olympus, 450 nm excitation, 520 nm emission). FDA, a non polar ester, crosses cell membranes and is hydrolyzed by intracellular esterases with the consequent production of a yellow greenish color.
After glutamate treatment, some neurons can degenerate and detach from the plates. The loss of cells was estimated by comparing the number of intact or degenerated neurons in a well defined field, which was photographed before and after 24 hours after application of glutamate. The percent of surviving neurons in 4 representative fields (magnification 40×) of each monolayer was determined by a researcher unaware of the experimental conditions, evaluating the FDA/PI color, and calculating it as follows: [formula]
Data are expressed as % of surviving cells. Significance was calculated using the Dunnett's test.

cerebellar granule cells [3] = experiment: Protective effect on exogenous glutamate induced neurotoxicity, pretreatment, MTT test; assay type: cell-based, Sprague-Dawley rats; settings: glutamate 100 μM, 2 hours pretreatment
Protocol: Primary cell cultures of cerebellar granule Cells were prepared from 6 day old Sprague-Dawley rats. Neurons were grown in 35 mm plates for 11-13 days and maintained in a humid environment (95% air and 5% CO2). Cultures (3×10^6 cells/plate) are mainly formed by granule cells (95%) with a small amount (5%) of glial cells (Gallo V. et al.: Selective release of glutamate from cerebellar granule cells differentiating in culture. Proc. Natl. Acad. Sci. USA 79, 7919-23, 1982). Glial proliferation was prevented by arabinofuranoside cytosine.
Derivative ND37 was solubilized at a concentration of 1×10^-2 M in dimethylsulfoxide (1% DMSO) and then diluted at various concentrations in Locke's solution (154 mM NaCl/1/5.6 mM KCl/3.6 mM NaHCO3 /2.3 mM CaCl2 /1 mM MgCl2 /5.6 mM glucose/5 mM HEPES, pH 7.4). The following concentrations were tested: 5×10^-6 M, 1×10^-5 M, and 2×10^-5 M.
The cell culture medium was aspirated from the plates (and correctly maintained). Plates were washed (3×2 ml) with Locke's solution, and solutions (1.5 ml) containing the compound to be tested (concentrations from 5×10^-6 M to 2×10^-5 M) were added and incubated for 2 hours in an incubator at 37° C. (5% CO2).
Treated cells were washed (3×2 ml) with Locke's solution+10% fetal calf serum, then washed (3×2 ml) with Locke's solution without Mg^++. 100 μM glutamate (1.5 ml) in Locke's solution (-Mg^++) or culture medium (controls) were added. Incubation with glutamate was performed for 15 minutes at room temperature (27° C.). Glutamate was removed, the plates were washed with Locke's solution (2×2 ml), and then incubated in presence of the starting medium (correctly maintained) for 24 hours at 37° C. in an incubator (5% C2 O). At the end of the incubation, cellular viability was assayed via quantification by the MTT colorimetric test (Mosmann T.: Rapid colorimetric assay for cellular growth and survival: application to proliferation and cytotoxicity assays. J. Immunol. Meth. 65, 55: 63, 1983 and modified according to Skaper S. D. et al.: Death of cultured hippocampal pyramidal neurons induced by pathological activation of N-methyl-D-aspartate receptors is reduced by monosialogangliosides. J. Pharm. Exp. Ter. 259,1 452-457, 1991). Data are expressed as % survival. The significance was calculated according to the Dunnett test.

cerebellar granule cells [4] = experiment: Extracellular glutamate and aspartate content in potassium induced depolarization (HPLC); assay type: cell-based, Sprague-Dawley rats
Protocol: Primary cell cultures of cerebellar granule cells were prepared from 8 day old Sprague-Dawley rats.
Neurons were grown in 35 mm plates for 11-13 days and maintained in a humid environment (95% air and 5% CO2). Cultures (3×10^6 cells/plate) are mainly formed by granule cells (95%, with a small amount (5%) of glial cells (Gallo V. et al.: Selective release of glutamate from cerebellar granule cells differentiating in culture. Proc. Natl. Acad. Sci. USA 79, 7919-23, 1982). Glial proliferation was prevented by arabinofuranoside cytosine.
Derivative ND37 was solubilized at a concentration of […] in dimethylsulfoxide (1% DMSO), and then diluted at various concentrations (0.1-1-10-20 μM) in Locke's solution (154 mM NaCl/5.6 mM KCl/3.6 mM NaHCO3 /2.3 mM CaCl2 /1 mM MgCl2 /5.6mM glucose/5 mM HEPES, pH 7.4). […]
The cell culture medium was aspirated from the plates. Plates were washed (3×2 ml) with Locke's solution, and solutions (750 μl) containing the compound to be tested (concentrations from 0.1 to 20 μM) were added and incubated for 2 hours in an incubator at 37° C. (5% CO2) both in the presence and absence of different depolarizing concentrations of KCl (between 5 and 50 mM). The incubation medium was gathered, filtered through a 0.2 μ filter, and processed (220 μl) for the analysis of the amino acid content.
The glutamate and aspartate content (expressed as μM) was evaluated by HPLC (high pressure liquid chromatography), according to Bidlingmeryer B. A. et al., J. Chromatogr. 336, 93-104, 1984.

[5] = Glutamate (1 mM) + ND37 (20 uM), 30 minutes pretreatment, n = 10
[6] = controls + ND 37 (20 uM), no KCl
[7] = group 3: KCl (50 mM) + ND37 (20 uM) as printed, corresponding group KCl (30 mM)
[8] = group 4: KCl (50 mM) + ND37 (20 uM), Table 5
[9] = group 5: KCl (50 mM) + ND37 (20 uM) as printed, corresponding group KCl (25 mM)
[10] = group 6: KCl (50 mM) + ND37 (20 uM) as printed, corresponding group KCl (15 mM)

In the case of `CCCCCCCCCCCCCCCC(=O)NC1C(O)CC(OCC)(C(=O)N(C)C)OC1C(O)C(O)CO` (stereo not drawn) [ND37, β-2-O-ethylglycoside of the dimethylamide of N-palmitoylneuraminic acid], the Channel conductivity [1, 5] is reported as 50 ps, the Opening frequence [1, 5] is reported as 4.1 ± 2.1 opening/sec and the “effect on channel conductivity and frequency of opening” value ([1]; pretreatment 30 minutes with 20 μM ND37) is reported as “does not influence”. For the same compound, the viability at 10 µM (cerebellar granule cells [2]; ND37 1 × 10^-5 M) was 34 ± 2%, the viability at 20 µM (cerebellar granule cells [2]; ND37 2 × 10^-5 M) was 70 ± 6% and the viability at 40 µM (cerebellar granule cells [2]; ND37 4 × 10^-5 M) was 88 ± 4.5%. For the same compound, the viability at 10 µM (cerebellar granule cells [3]; Rattus norvegicus, ND37 1 × 10^-5 M, read-out: % survival) was about 63%, the viability at 20 µM (cerebellar granule cells [3]; Rattus norvegicus, ND37 2 × 10^-5 M, read-out: % survival) was about 83% and the viability at 5 µM (cerebellar granule cells [3]; Rattus norvegicus, ND37 5 × 10^-6 M, read-out: % survival) was 37 ± 5%. For the same compound, the MTT values (cerebellar granule cells [3]; ND37 1 × 10^-5 M) was 0.123 ± 0.006, the MTT values (cerebellar granule cells [3]; ND37 2 × 10^-5 M) was 0.326 ± 0.016 and the MTT values (cerebellar granule cells [3]; ND37 5 × 10^-6 M) was 0.110 ± 0.015. For the same compound, the “glutamate increase induced by KCl in the culture medium” value (cerebellar granule cells [4]; 20 μM) was “completely abolished”, the “extracellular increase of glutamate and aspartate induced by KCl” value (cerebellar granule cells [4]; 20 μM, KCl 15, 25, 30, and 50 mM) was “completely abolished” and the Extracellular glutamate content (cerebellar granule cells [4]; KCl (50 mM) + ND37 (0.1 uM)) was 12.60 ± 0.57 µM. It also gave an Extracellular glutamate content (cerebellar granule cells [4]; KCl (50 mM) + ND37 (1 uM)) of 13.30 ± 1.33 µM, an Extracellular glutamate content (cerebellar granule cells [4]; KCl (50 mM) + ND37 (10 uM)) of 5.60 ± 2.37 µM and an Extracellular glutamate content (cerebellar granule cells [4]; KCl (50 mM) + ND37 (20 uM), Table 4) of 0.11 ± 0.09 µM. For the same compound, the activity at 0.1 µM (cerebellar granule cells [4]; Rattus norvegicus, 2 h, KCl (50 mM) + ND37 (0.1 uM)) was 72%, the activity at 1 µM (cerebellar granule cells [4]; Rattus norvegicus, 2 h, KCl (50 mM) + ND37 (1 uM)) was 76% and the activity at 10 µM (cerebellar granule cells [4]; Rattus norvegicus, 2 h, KCl (50 mM) + ND37 (10 uM)) was 32%. The activity at 20 µM (cerebellar granule cells [4]; Rattus norvegicus, 2 h, KCl (50 mM) + ND37 (20 uM), Table 4, read-out: % KCl 50 Mm (extracellular glutamate)) was 0.01%, the activity at 20 µM (cerebellar granule cells [4]; Rattus norvegicus, 2 h, group 3: KCl (50 mM) + ND37 (20 uM) as printed, corresponding group KCl (30 mM), read-out: % corresp. KCl (aspartate)) was 0.06% and the activity at 20 µM (cerebellar granule cells [4]; Rattus norvegicus, 2 h, group 3: KCl (50 mM) + ND37 (20 uM) as printed, corresponding group KCl (30 mM), read-out: % corresp. KCl (glutamate)) was 0.01%. It also gave an activity at 20 µM (cerebellar granule cells [4]; Rattus norvegicus, 2 h, group 4: KCl (50 mM) + ND37 (20 uM), Table 5, read-out: % corresp. KCl (aspartate)) of 0.13%, an activity at 20 µM (cerebellar granule cells [4]; Rattus norvegicus, 2 h, group 4: KCl (50 mM) + ND37 (20 uM), Table 5, read-out: % corresp. KCl (glutamate)) of 0.02% and an activity at 20 µM (cerebellar granule cells [4]; Rattus norvegicus, 2 h, group 5: KCl (50 mM) + ND37 (20 uM) as printed, corresponding group KCl (25 mM), read-out: % corresp. KCl (aspartate)) of 0.28%. It also gave an activity at 20 µM (cerebellar granule cells [4]; Rattus norvegicus, 2 h, group 5: KCl (50 mM) + ND37 (20 uM) as printed, corresponding group KCl (25 mM), read-out: % corresp. KCl (glutamate)) of 0.06%, an activity at 20 µM (cerebellar granule cells [4]; Rattus norvegicus, 2 h, group 6: KCl (50 mM) + ND37 (20 uM) as printed, corresponding group KCl (15 mM), read-out: % corresp. KCl (aspartate)) of 0.09% and an activity at 20 µM (cerebellar granule cells [4]; Rattus norvegicus, 2 h, group 6: KCl (50 mM) + ND37 (20 uM) as printed, corresponding group KCl (15 mM), read-out: % corresp. KCl (glutamate)) of 0.34%. For the same compound, the inhibition at 0.1 µM (cerebellar granule cells [4]; Rattus norvegicus, 2 h, 0.1 μM, read-out: reduction of extracellular glutamate induced by KCl) was about 30%, the Extracell. aspartate content (cerebellar granule cells [4]; [6]) was 0.039 µM and the Extracell. glutamate content (cerebellar granule cells [4]; [6]) was 0.362 µM. The “basal levels (controls) of extracellular glutamate and aspartate” value (cerebellar granule cells [4]; doses up to 20 μM) was “did not modify”, the Extracell. aspartate content (cerebellar granule cells [4]; [7]) was 0.063 µM and the Extracell. glutamate content (cerebellar granule cells [4]; [7]) was 0.318 µM. For the same compound, the Extracell. aspartate content (cerebellar granule cells [4]; [8]) was 0.078 µM, the Extracell. glutamate content (cerebellar granule cells [4]; [8]) was 0.246 µM and the Extracell. aspartate content (cerebellar granule cells [4]; [9]) was 0.107 µM. It also gave an Extracell. glutamate content (cerebellar granule cells [4]; [9]) of 0.330 µM, an Extracell. aspartate content (cerebellar granule cells [4]; [10]) of 0.046 µM and an Extracell. glutamate content (cerebellar granule cells [4]; [10]) of 0.899 µM.
